Source: the NIST ThermoML archive (doi:10.1021/je7003963)

Assay: mn = molality of the nth substance listed, in mol/kg
Conditions: 293.15 K; for speed of sound / mass density: 101 kPa, Liquid; for speed of sound: Sing-around technique in a fixed-path interferometer; for mass density: Vibrating tube method

CN1CCN(CCCN2c3ccccc3Sc3ccc(C(F)(F)F)cc32)CC1.Cl.Cl [trifluoperazine dihydrochloride] + O
Conditions | mass density [kg/m3] | speed of sound [m/s] | surface tension liquid-gas [mN/m]
m1 = 0.003 | – | – | 58.1
m1 = 0.004 | – | – | 55.1
m1 = 0.005 | – | – | 51.4
m1 = 0.006 | – | – | 51.1
m1 = 0.007 | – | – | 49.6
m1 = 0.0079 | 999.369 | 1484.1 | –
m1 = 0.008 | – | – | 47.7
m1 = 0.00895 | 999.513 | 1484.3 | –
m1 = 0.009 | – | – | 47.7
m1 = 0.01 | – | – | 46.5
m1 = 0.011 | 999.803 | 1484.7 | –
m1 = 0.01547 | 1000.45 | 1485.5 | –
m1 = 0.02109 | 1001.24 | 1486.4 | –
m1 = 0.025 | – | – | 46
m1 = 0.0286 | 1002.31 | 1487.8 | –
m1 = 0.03996 | 1003.91 | 1489.8 | –
m1 = 0.0492 | 1005.18 | 1491.3 | –
m1 = 0.05 | – | – | 46.5
m1 = 0.06004 | 1006.67 | 1493 | –
m1 = 0.075 | – | – | 45.9
m1 = 0.07991 | 1009.39 | 1496.2 | –
m1 = 0.09979 | 1012.03 | 1498.3 | –
m1 = 0.1 | – | – | 46.6
m1 = 0.1248 | 1015.25 | 1500.6 | –
m1 = 0.125 | – | – | 46.5
m1 = 0.1496 | 1018.45 | 1502.9 | –
m1 = 0.15 | – | – | 45.9
m1 = 0.1737 | 1021.45 | 1505.1 | –
m1 = 0.1994 | 1024.63 | 1507.3 | –
m1 = 0.2245 | 1027.65 | 1509.5 | –
m1 = 0.2494 | 1030.56 | 1511.7 | –
m1 = 0.2749 | 1033.52 | 1513.6 | –
m1 = 0.2998 | 1036.3 | 1515.8 | –

Cl.Cl.OCCN1CCN(CCCN2c3ccccc3Sc3ccc(C(F)(F)F)cc32)CC1 [fluphenazine dihydrochloride] + O
Conditions | mass density [kg/m3] | speed of sound [m/s] | surface tension liquid-gas [mN/m]
m1 = 0.001 | – | – | 59.1
m1 = 0.002 | – | – | 57.9
m1 = 0.003 | – | – | 54.5
m1 = 0.004 | – | – | 51.1
m1 = 0.005 | – | – | 49
m1 = 0.006 | – | – | 49.9
m1 = 0.00605 | 999.199 | 1484.1 | –
m1 = 0.007 | – | – | 47.7
m1 = 0.00716 | 999.381 | 1484.6 | –
m1 = 0.00794 | 999.509 | 1484.8 | –
m1 = 0.008 | – | – | 45.9
m1 = 0.00898 | 999.679 | 1485.1 | –
m1 = 0.01001 | 999.848 | 1485.3 | –
m1 = 0.01999 | 1001.44 | 1487.5 | –
m1 = 0.025 | – | – | 44.3
m1 = 0.02935 | 1002.91 | 1489.3 | –
m1 = 0.04 | 1004.55 | 1491.5 | 44.6
m1 = 0.0506 | 1006.17 | 1492.8 | –
m1 = 0.05999 | 1007.59 | 1494.4 | –
m1 = 0.075 | – | – | 44
m1 = 0.0803 | 1010.64 | 1496.9 | –
m1 = 0.1 | 1013.53 | 1499 | 44.5
m1 = 0.1248 | 1017.05 | 1501.5 | –
m1 = 0.125 | – | – | 44.1
m1 = 0.149 | 1020.45 | 1503.8 | –
m1 = 0.15 | – | – | 44.6
m1 = 0.1752 | 1023.98 | 1506.3 | –
